Laboratory results published in US10385065B2, “Antibacterial compounds” (priority 2014, dated 2019).
In brackets after ≈: the same amount, converted by molar mass. Where two headings read alike, the source gives them in different places.

Columns and labels:
Format in all cases: cell-based
[1] = test system: Staphylococcus aureus ATCC 29213; experiment: MIC, broth microdilution, S. aureus ATCC 29213
[2] = test system: Haemophilus influenzae ATCC 49247; experiment: MIC, H. influenzae ATCC 49247; details: ATCC49247, Table 4
[3] = test system: Enterococcus faecium ATCC 19434; experiment: MIC, E. faecium ATCC 19434; details: ATCC19434, Table 2
[4] = test system: Escherichia coli ATCC 25922; experiment: MIC, broth microdilution, E. coli ATCC 25922; details: ATCC25922, Table 1, wild type strain
[5] = test system: human hepatic cell line (HepG2 ATCC HB-8065); experiment: Human cell viability assay (CellTiter-Glo), HepG2; details: HepG2, 24 h incubation, tested over 1-128 μg/mL, read-out: IC50 values against HepG2
Method: Compounds are assessed for potential non-specific cytotoxic effects against a human hepatic cell line (HepG2 ATCC HB-8065). HepG2 cells are seeded at 20,000 cells/well in 96-well microtitre plates in minimal essential medium (MEM) supplemented with a final concentration of 10% FBS and 1 mM sodium pyruvate. After 24 h compound dilutions are prepared in Dulbecco's minimum essential media (DMEM) supplemented with final concentrations of 0.001% FBS, 0.3% bovine albumin and 0.02% HEPES and added to cells. Compounds are tested in two-fold serial dilutions over a final concentration range of 1-128 μg/mL in a final DMSO concentration of 1% vol/vol. Chlorpromazine is used as a positive control. Cells are incubated with compound at 37° C. and 5% CO2 for a further 24 h, after which time the CellTiter-Glo reagent (Promega) is added. Luminescence is measured on a BMG Omega plate reader. Data are analysed using GraphPad Prism software to determine the concentration of compound that inhibits cell viability by fifty percent (IC50).

[6] = ATCC29213, Table 1, wild type strain, read-out: MIC S. aureus ATCC 29213
[7] = ATCC 29213 / MSSA, Table 2, read-out: MIC S. aureus (MSSA) ATCC 29213 CLSI control strain

SMILES | MIC [1, 6] | MIC [1, 7] | MIC [2] | MIC [3] | MIC [4] | IC50 [5]
Cc1c(-c2cnc(N(C)C)nc2)ccc2c3ocnc3c(=O)n(C3CC3)c12 [Compound 41, 5-cyclopropyl-7-[2-(dimethylamino)pyrimidin-5-yl]-6-methyl-oxazolo[4,5-c]quinolin-4-one] | 1 to 10 µg/mL (≈ 2.77 to 27.7 µM) | 1 to 10 µg/mL (≈ 2.77 to 27.7 µM) | 10 to 100 µg/mL (≈ 27.7 to 277 µM) | > 100 µg/mL | > 100 µg/mL | 10 to 100 µg/mL (≈ 27.7 to 277 µM)
NCC1CCN(c2nc3c(cc2F)c2ocnc2c(=O)n3C2CC2)C1 (centres unmarked) [Compound 81, 7-[3-(aminomethyl)pyrrolidin-1-yl]-5-cyclopropyl-8-fluoro-oxazolo[4,5-c][1,8]naphthyridin-4-one] | 1 to 10 µg/mL (≈ 2.91 to 29.1 µM) | 1 to 10 µg/mL (≈ 2.91 to 29.1 µM) | 1 to 10 µg/mL (≈ 2.91 to 29.1 µM) | > 100 µg/mL | 1 to 10 µg/mL (≈ 2.91 to 29.1 µM) | > 100 µg/mL
Cc1nc2c(=O)n(C3CC3)c3c(C)c(-c4cc(F)c(CO)cc4F)ccc3c2o1 [Compound 34, 5-cyclopropyl-7-[2,5-difluoro-4-(hydroxymethyl)phenyl]-2,6-dimethyl-oxazolo[4,5-c]quinolin-4-one] | < 1 µg/mL | < 1 µg/mL | 1 to 10 µg/mL (≈ 2.52 to 25.2 µM) | > 100 µg/mL | 1 to 10 µg/mL (≈ 2.52 to 25.2 µM) | > 100 µg/mL
Cc1c(-c2ccc(NCc3ccccc3)nc2)ccc2c3ocnc3c(=O)n(C3CC3)c12 [Compound 48, 7-[6-(benzylamino)pyridin-3-yl]-5-cyclopropyl-6-methyl-oxazolo[4,5-c]quinolin-4-one] | 1 to 10 µg/mL (≈ 2.37 to 23.7 µM) | 1 to 10 µg/mL (≈ 2.37 to 23.7 µM) | 1 to 10 µg/mL (≈ 2.37 to 23.7 µM) | > 100 µg/mL | 10 to 100 µg/mL (≈ 23.7 to 237 µM) | 10 to 100 µg/mL (≈ 23.7 to 237 µM)
Cc1nc2c(=O)n(C3CC3)c3c(C)c(-c4ccc(C#N)cc4F)ccc3c2o1 [Compound 33, 4-(5-cyclopropyl-2,6-dimethyl-4-oxo-oxazolo[4,5-c]quinolin-7-yl)-3-fluoro-benzonitrile] | < 1 µg/mL | < 1 µg/mL | 10 to 100 µg/mL (≈ 26.8 to 268 µM) | > 100 µg/mL | > 100 µg/mL | 10 to 100 µg/mL (≈ 26.8 to 268 µM)
NC(=O)c1ccc(-c2cc3c(cc2F)c2ocnc2c(=O)n3C2CC2)cc1 [Compound 58, 4-(5-cyclopropyl-8-fluoro-4-oxo-oxazolo[4,5-c]quinolin-7-yl)benzamide] | 1 to 10 µg/mL (≈ 2.75 to 27.5 µM) | 1 to 10 µg/mL (≈ 2.75 to 27.5 µM) | 1 to 10 µg/mL (≈ 2.75 to 27.5 µM) | > 100 µg/mL | 10 to 100 µg/mL (≈ 27.5 to 275 µM) | 10 to 100 µg/mL (≈ 27.5 to 275 µM)
Cc1c(-c2ccc3nonc3c2)ccc2c3ocnc3c(=O)n(C3CC3)c12 [Compound 46, 7-(2,1,3-benzoxadiazol-5-yl)-5-cyclopropyl-6-methyl-oxazolo[4,5-c]quinolin-4-one] | < 1 µg/mL | < 1 µg/mL | > 100 µg/mL | > 100 µg/mL | 1 to 10 µg/mL (≈ 2.79 to 27.9 µM) | 10 to 100 µg/mL (≈ 27.9 to 279 µM)
Cc1nc2c(=O)n(C3CC3)c3c(C)c(-c4ccc(C(C)(C)N)cc4)ccc3c2o1 [Compound 28, 7-[4-(2-aminopropan-2-yl)phenyl]-5-cyclopropyl-2,6-dimethyloxazolo[4,5-c]quinolin-4-one] | 10 to 100 µg/mL (≈ 25.8 to 258 µM) | 1 to 10 µg/mL (≈ 2.58 to 25.8 µM) | 1 to 10 µg/mL (≈ 2.58 to 25.8 µM) | 10 to 100 µg/mL (≈ 25.8 to 258 µM) | 10 to 100 µg/mL (≈ 25.8 to 258 µM) | 10 to 100 µg/mL (≈ 25.8 to 258 µM)
Cc1c(-c2ccc(N)cc2F)ccc2c3ocnc3c(=O)n(C3CC3)c12 [Compound 5, 7-(4-amino-2-fluoro-phenyl)-5-cyclopropyl-6-methyl-oxazolo[4,5-c]quinolin-4-one] | < 1 µg/mL | < 1 µg/mL | < 1 µg/mL | > 100 µg/mL | 1 to 10 µg/mL (≈ 2.86 to 28.6 µM) | 10 to 100 µg/mL (≈ 28.6 to 286 µM)
Cc1nc2c(=O)n(C3CC3)c3cc(N4CCC(C)(N)CC4)c(F)cc3c2o1 [Compound 55, 7-(4-amino-4-methylpiperidin-1-yl)-5-cyclopropyl-8-fluoro-2-methyl-oxazolo[4,5-c]quinolin-4-one] | 1 to 10 µg/mL (≈ 2.7 to 27 µM) | 1 to 10 µg/mL (≈ 2.7 to 27 µM) | 1 to 10 µg/mL (≈ 2.7 to 27 µM) | > 100 µg/mL | 10 to 100 µg/mL (≈ 27 to 270 µM) | > 100 µg/mL
Cc1nc2c(=O)n(C3CC3)c3c(C)c(-c4cnn(C5CN(C(=O)OC(C)(C)C)C5)c4)ccc3c2o1 [Compound 11, tert-butyl 3-[4-(5-cyclopropyl-2,6-dimethyl-4-oxo-oxazolo[4,5-c]quinolin-7-yl)pyrazol-1-yl]azetidine-1-carboxylate] | 1 to 10 µg/mL (≈ 2.1 to 21 µM) | 1 to 10 µg/mL (≈ 2.1 to 21 µM) | 10 to 100 µg/mL (≈ 21 to 210 µM) | > 100 µg/mL | > 100 µg/mL | > 100 µg/mL
Cc1nc2c(=O)n(C3CC3)c3c(C)c(-c4cc(F)c(C#N)cc4F)ccc3c2o1 [Compound 24] | < 1 µg/mL | < 1 µg/mL | 1 to 10 µg/mL (≈ 2.56 to 25.6 µM) | > 100 µg/mL | 10 to 100 µg/mL (≈ 25.6 to 256 µM) | > 100 µg/mL
Cc1nc2c(=O)n(C3CC3)c3cc(-c4cc(F)c(N)cc4F)c(F)cc3c2o1 [Compound 79, 7-(4-amino-2,5-difluoro-phenyl)-5-cyclopropyl-8-fluoro-2-methyl-oxazolo[4,5-c]quinolin-4-one] | < 1 µg/mL | < 1 µg/mL | < 1 µg/mL | > 100 µg/mL | 10 to 100 µg/mL (≈ 26 to 260 µM) | 10 to 100 µg/mL (≈ 26 to 260 µM)
Cc1c(-c2ccc(N)cc2)ccc2c3ocnc3c(=O)n(C3CC3)c12 [Compound 40, 7-(4-aminophenyl)-5-cyclopropyl-6-methyl-oxazolo[4,5-c]quinolin-4-one] | < 1 µg/mL | < 1 µg/mL | 1 to 10 µg/mL (≈ 3.02 to 30.2 µM) | > 100 µg/mL | 1 to 10 µg/mL (≈ 3.02 to 30.2 µM) | > 100 µg/mL
Cc1nc2c(=O)n(C3CC3)c3c(C)c(-c4ccc5[nH]ncc5c4)ccc3c2o1 [Compound 10, 5-cyclopropyl-7-(1H-indazol-5-yl)-2,6-dimethyl-oxazolo{4,5-c]quinolin-4-one] | < 1 µg/mL | < 1 µg/mL | 10 to 100 µg/mL (≈ 27 to 270 µM) | > 100 µg/mL | > 100 µg/mL | 10 to 100 µg/mL (≈ 27 to 270 µM)
O=C(O)c1cn(C2CC2)c2cc(N3CCNCC3)c(F)cc2c1=O [Ciprofloxacin, reference compound] | – | – | – | – | – | > 100 µg/mL
Cc1c(-c2ccccc2)ccc2c3ocnc3c(=O)n(C3CC3)c12 [Compound 7, 5-cyclopropyl-6-methyl-7-phenyl-oxazolo[4,5-c]quinolin-4-one] | 1 to 10 µg/mL (≈ 3.16 to 31.6 µM) | 1 to 10 µg/mL (≈ 3.16 to 31.6 µM) | 10 to 100 µg/mL (≈ 31.6 to 316 µM) | 10 to 100 µg/mL (≈ 31.6 to 316 µM) | > 100 µg/mL | –
O=c1c2ncoc2c2cc(F)c(-c3cc(F)c(CO)cc3F)cc2n1C1CC1 [Compound 68, 5-cyclopropyl-7-[2,5-difluoro-4-(hydroxymethyl)phenyl]-8-fluoro-oxazolo[4,5-c]quinolin-4-one] | < 1 µg/mL | < 1 µg/mL | < 1 µg/mL | > 100 µg/mL | 1 to 10 µg/mL (≈ 2.59 to 25.9 µM) | –
COc1c(N2CCC(N)C2)c(F)cc2c3ocnc3c(=O)n(C3CC3)c12 (centres unmarked) [Compound 97, 7-(3-aminopyrrolidin-1-yl)-5-cyclopropyl-8-fluoro-6-methoxyoxazolo[4,5-c]quinolin-4-one] | < 1 µg/mL | < 1 µg/mL | 1 to 10 µg/mL (≈ 2.79 to 27.9 µM) | 10 to 100 µg/mL (≈ 27.9 to 279 µM) | 1 to 10 µg/mL (≈ 2.79 to 27.9 µM) | –
Cc1nc2c(=O)n(C3CC3)c3c(C)c(-c4cc(F)c(O)cc4F)ccc3c2o1 [Compound 32, 5-cyclopropyl-7-(2,5-difluoro-4-hydroxy-phenyl)-2,6-dimethyl-oxazolo[4,5-c]quinolin-4-one] | < 1 µg/mL | < 1 µg/mL | 1 to 10 µg/mL (≈ 2.62 to 26.2 µM) | 10 to 100 µg/mL (≈ 26.2 to 262 µM) | 1 to 10 µg/mL (≈ 2.62 to 26.2 µM) | –
Cc1nc2c(=O)n(C3CC3)c3cc(N4CCCC(N)C4)c(F)cc3c2o1 (centres unmarked) [Compound 51, 7-(3-aminopiperidin-1-yl)-5-cyclopropyl-8-fluoro-2-methyl-oxazolo[4,5-c]quinolin-4-one] | 1 to 10 µg/mL (≈ 2.81 to 28.1 µM) | 1 to 10 µg/mL (≈ 2.81 to 28.1 µM) | 1 to 10 µg/mL (≈ 2.81 to 28.1 µM) | 10 to 100 µg/mL (≈ 28.1 to 281 µM) | 1 to 10 µg/mL (≈ 2.81 to 28.1 µM) | –
